In brackets after ≈: the same amount, converted by molar mass. Like-named read-outs stand apart in the source and are kept apart here.
Tests used:
[1] = test system: Caco-2 monolayer; experiment: Caco-2 cell permeability assay; format: in vitro ADME
Procedure: The permeability co-efficient (Papp A-B) of the compounds were calculated and the ability of compounds to move from the apical to the basolateral side of Caco-2 monolayer is shown in FIG. 16.

[2] = literature; cited from earlier work
[3] = test system: C. difficile strain ATCC 43596; experiment: Hamster model of CDI (efficacy); format: in vivo, Golden Syrian hamsters
Procedure: Golden Syrian hamsters (˜100 g) from Charles River Laboratories were separately housed in sterile cages and maintained on sterile food and water. On day −1, animals were subcutaneously injected with clindamycin phosphate solution (50 mg/kg, from Hospira). After 20 h (day 0), hamsters were infected by oral gavage with 10^6 cfu of the C. difficile strain ATCC 43596 grown in Sporulation Medium and washed once with pre-reduced PBS; 15. […] After 5 days of treatment, surviving hamsters were monitored for up to 30 days for signs of disease as described by Anton et al. All moribund animals were euthanized, as well as those that survived the post-treatment monitoring period (30 days); ceca were recovered from all animals. All animal experiments were approved by The Institutional Animal Care and Use Committee of The University of Texas at Arlington.

[4] = test system: C. difficile strains R20291 and BAA-1875; experiment: MIC testing against C. difficile strains R20291 and BAA-1875; format: cell-based, Clostridium difficile; details: for fold less active than 1971 (MIC): relative to parent 1971; for MIC: Clostridioides difficile, BAA1875, C. difficile R20291 and BAA-1875 (FIG. 8), 24 h, 37° C., anaerobic
Procedure: (§1) The synthesized compounds were initially tested against four virulent C. difficile strains: CD1803 (toxinotype III, 95 NAP1), CD1875 (toxinotype V, NAP7), R20291 (ribotype 027—from A. Sonenshein, Tufts University, USA), and BAA-1875 (ribotype 078, from American Type Culture Collection-ATCC). The activities (i.e. Minimum Inhibitory Concentrations-MICs) of test compounds were determined in 24 or 96 well microtitre plates using bacterial inocula of 10^6 cfu/mL and were defined as the lowest concentration of test compound that inhibited visible growth after 24 h of incubation at 37° C. in an A35 anaerobic chamber (Don-Whitley).

[5] = test system: C. difficile strain BAA-1803; experiment: MIC against C. difficile strain BAA-1803; format: cell-based, Clostridium difficile; details: 3-position substituents
Procedure: as §1

[6] = test system: C. difficile; experiment: MIC of nitro and des-nitro analogs (mode of action); format: cell-based, Clostridium difficile; details: Clostridioides difficile; des-nitro analogs (FIG. 11)
[7] = test system: C. difficile strain ATCC 43596; experiment: MIC against infecting strain ATCC 43596; format: cell-based, Clostridium difficile
[8] = Cecal content concentrations in hamsters; format: in vivo; details: for mean peak cecal concentration: hamster cecal contents at 1, 3 and 5 h after oral dosing 100 mg/kg, LLOQ 10 ng/mL
Procedure: (§2) After dosing animals (n=3 per time point) as above, animals were humanely sacrificed at time points and their cecal contents collected and stored at −20° C. For plasma samples, 25 μL of plasma was placed in 384-well analytical plate and quenched by the addition of 50 μL of acetonitrile containing 4 mg/L warfarin as an internal standard. The plate was sealed, shaken at 600 rpm for 10 min, and then was centrifuged at 4000 rpm for 20 min. 15 μL of the supernatant was transferred to a new analytical 96-well plate and mixed with 100 μL of MilliQ water. The samples were analyzed by injecting 5 μL onto a Waters UPLC/SQD LC-MS/MS system. The cecal samples were processed by adding 100 μL of acetonitrile containing 4 mg/L of warfarin (internal standard) to the microfuge tubes containing cecal matter (˜50 mg). The suspension was vortexed for 10 sec, sonicated for 1 min and then centrifuged at 10,000 rpm for 10 min. Aliquots (50 μL) of the collected supernatants were then transferred to a 384-well plate and analyzed by high resolution mass spectroscopy using Waters XEVO QTOF LCMS.
To evaluate this in vivo, we determined the concentrations of the three compounds in the cecal contents recovered from hamsters at 1, 3 and 5 h time points following oral dosing (FIG. 19).

[9] = In vitro microsomal stability; format: in vitro ADME; details: microsomes; data not shown; read-out: microsomal stability t½ (converted)
Description: Thus, the very low concentration of the hybrids in the plasma might likely be due to a combination of poor intestinal absorption and hepatic clearance.

[10] = Pharmacokinetic study in hamsters, plasma; format: in vivo; details: male, Syrian, po, hamster, 100 mg/kg in PEG-400:water (85:15); for AUC: read-out: total exposure (AUC) in plasma
Procedure: as §2, with “Pharmacokinetic studies were assessed in male Syrian hamsters (˜100 g), from Charles-River, with each carrying a pre-implanted jugular vein cannula. Hamsters (n=5 per group) were fasted overnight and for the duration of the experiment (7 h). After collecting pre-dose blood samples (200 μL), animals were dosed with 100 mg/kg of compounds formulated in PEG-400:water (85:15). At various time points blood samples were collected into heparinized coated tubes that were centrifuged at 3000 rpm for 10 min to yield plasma, which was stored at −20° C. After” for “After”

[11] = test system: Clostridium difficile infection; details: severe CDI; cited from earlier work
[12] = Clostridioides difficile, ATCC43596, infecting strain ATCC 43596, read-out: MIC

SMILES: CN[C@H](CC(C)C)C(=O)N[C@H]1C(=O)N[C@@H](CC(N)=O)C(=O)N[C@H]2C(=O)N[C@H]3C(=O)N[C@H](C(=O)N[C@H](C(=O)O)c4cc(O)cc(O)c4-c4cc3ccc4O)[C@H](O)c3ccc(c(Cl)c3)Oc3cc2cc(c3O[C@@H]2O[C@H](CO)[C@@H](O)[C@H](O)[C@H]2O[C@H]2C[C@](C)(N)[C@H](O)[C@H](C)O2)Oc2ccc(cc2Cl)[C@H]1O [vancomycin]
- Caco-2 permeation in words ([1]; apical to basolateral): poor permeation properties
- absorbed from the gastrointestinal tract [2]: < 10%
- complete survival, days post-treatment ([3]; vancomycin 20 mg/kg, hybrids 50 mg/kg): more than 20 days

SMILES: CC(=O)C1=C(O)CN(CCn2c([N+](=O)[O-])cnc2C)C1=O [Compound 2153, 3-acetyl-4-hydroxy-1-(2-(2-methyl-5-nitro-1H-imidazol-1-yl)ethyl)-1H-pyrrol-2(5H)-one]
- fold less active than 1971 (MIC) [4]: > 64 fold

SMILES: Cc1ncc([N+](=O)[O-])n1CCN1C(=O)C=C(O)C1CC(C)C.O=C(O)C(F)(F)F (centres unmarked) [Compound 2314, 4-hydroxy-5-isobutyl-1-(2-(2-methyl-5-nitro-1H-imidazol-1-yl)ethyl)-1H-pyrrol-2(5H)-one, TFA]
- activity / MIC in words (FIG. 10) [5]: loss of activity

SMILES: CC(=O)C1=C(O)C(Cc2ccccc2)N(CCn2c([N+](=O)[O-])cnc2C)C1=O (centres unmarked) [Compound 2154, 3-acetyl-5-benzyl-4-hydroxy-1-(2-(2-methyl-5-nitro-1H-imidazol-1-yl)ethyl)-1H-pyrrol-2(5H)-one]
- Caco-2 permeation in words ([1]; Caco-2): slightly more permeable than vancomycin
- permeability co-efficient (Papp A-B) ([1]; Caco-2): 284.5±34.7 to 307±35.6

SMILES: CC(=O)C1=C(O)C(Cc2ccc(-c3ccccc3)cc2)N(CCn2ccnc2C)C1=O (centres unmarked) [Compound 2700, 5-([1,1′-biphenyl]-4-ylmethyl)-3-acetyl-4-hydroxy-1-(2-(2-methyl-1H-imidazol-1-yl)ethyl)-1H-pyrrol-2(5H)-one]
- MIC [6]: > 128 µg/mL

SMILES: Cc1ncc([N+](=O)[O-])n1CC(=O)C1=C(O)C(CC(C)C)NC1=O (centres unmarked) [Compound 2123, 4-hydroxy-5-isobutyl-3-(2-(2-methyl-5-nitro-1H-imidazol-1-yl)acetyl)-1H-pyrrol-2(5H)-one]
- fold less active than 1971 (MIC) [4]: 10 fold

SMILES: CC(=O)C1=C(O)C(Cc2cccc3ccccc23)N(CCn2ccnc2C)C1=O (centres unmarked) [Compound 2699, 3-acetyl-4-hydroxy-1-(2-(2-methyl-1H-imidazol-1-yl)ethyl)-5-(naphthalen-1-ylmethyl)-1H-pyrrol-2(5H)-one]
- MIC [6]: > 128 µg/mL

SMILES: CC(=O)C1=C(O)C(Cc2ccc(-c3ccccc3)cc2)N(CCn2c([N+](=O)[O-])cnc2C)C1=O (centres unmarked) [Compound 2345, 5-([1,1′-biphenyl]-4-ylmethyl)-3-acetyl-4-hydroxy-1-(2-(2-methyl-5-nitro-1H-imidazol-1-yl)ethyl)-1H-pyrrol-2(5H)-one]
- MIC [7, 12]: 0.25 µg/mL (≈ 0.543 µM)
- fold difference in cecal concentration of 2344 and 2345 ([8]; 2345 versus 2344): 12 fold
- mean peak cecal concentration [8]: 32,649 ng/mL
- half-life [9]: 79.8 min
- Cmax [10]: 616 ng/mL
- Tmax [10]: 15 min
- AUC [10]: 355 ng·h/mL

SMILES: CCC(C)C1C(O)=C(C(C)=O)C(=O)N1CCn1c([N+](=O)[O-])cnc1C (centres unmarked) [Compound 2155, 3-acetyl-5-(sec-butyl)-4-hydroxy-1-(2-(2-methyl-5-nitro-1H-imidazol-1-yl)ethyl)-1H-pyrrol-2(5H)-one]
- Caco-2 permeation in words ([1]; Caco-2): slightly more permeable than vancomycin
- permeability co-efficient (Papp A-B) ([1]; Caco-2): 284.5±34.7 to 307±35.6

SMILES: CC(=O)C1=C(O)C(Cc2cn(C)c3ccccc23)N(CCn2c([N+](=O)[O-])cnc2C)C1=O (centres unmarked) [Compound 2490]
- MIC ([7]; infecting strain ATCC 43596): 0.25 µg/mL (≈ 0.571 µM)

SMILES: CC(=O)C1=C(O)C(CSCc2ccccc2)N(CCn2c([N+](=O)[O-])cnc2C)C1=O (centres unmarked) [Compound 2313, 3-acetyl-5-((benzylthio)methyl)-4-hydroxy-1-(2-(2-methyl-5-nitro-1H-imidazol-1-yl)ethyl)-1H-pyrrol-2(5H)-one]
- Caco-2 permeation in words ([1]; Caco-2): slightly more permeable than vancomycin
- permeability co-efficient (Papp A-B) ([1]; Caco-2): 284.5±34.7 to 307±35.6

SMILES: Cc1ncc([N+](=O)[O-])n1CCO [metronidazole, reference compound]
- MIC ([7]; Clostridioides difficile, ATCC43596): 0.125 µg/mL (≈ 0.73 µM)
- Caco-2 permeation in words ([1]; apical to basolateral): highly permeable
- patients relapsing following therapy [11]: more than 25%
- Cmax [10]: 51000 ng/mL
- Tmax [10]: 60 min
- AUC [10]: 135000 ng·h/mL
- survival, maximum days post-infection ([3]; 50 mg/kg once daily, days 1 to 5, oral): ≤ 10 days
- MIC [4]: 0.25 µg/mL (≈ 1.46 µM)

SMILES: CC(=O)C1=C(O)C(Cc2cccc3ccccc23)N(CCn2c([N+](=O)[O-])cnc2C)C1=O (centres unmarked) [Compound 2344, 3-acetyl-4-hydroxy-1-(2-(2-methyl-5-nitro-1H-imidazol-1-yl)ethyl)-5-(naphthalen-1-ylmethyl)-1H-pyrrol-2(5H)-one]
- MIC [7, 12]: 0.25 µg/mL (≈ 0.575 µM)
- mean peak cecal concentration [8]: 2,678 ng/mL
- half-life [9]: 18 min
- Cmax [10]: 211 ng/mL
- Tmax [10]: 15 min
- AUC [10]: 386 ng·h/mL

SMILES: Cc1cnc([N+](=O)[O-])n1CCNC(=O)C1=C(O)C(CC(C)C)NC1=O (centres unmarked) [Compound 2122, 4-hydroxy-5-isobutyl-N-(2-(5-methyl-2-nitro-1H-imidazol-1-yl)ethyl)-2-oxo-2,5-dihydro-1H-pyrrole-3-carboxamide]
- fold less active than 1971 (MIC) [4]: 24 fold

SMILES: CC(=O)C1=C(O)C(CC(C)C)N(CCn2c([N+](=O)[O-])cnc2C)C1=O (centres unmarked) [Compound 1971, 3-acetyl-4-hydroxy-5-isobutyl-1-(2-(2-methyl-5-nitro-1H-imidazol-1-yl)ethyl)-1H-pyrrol-2(5H)-one]
- MIC [7, 12]: 0.5 µg/mL (≈ 1.43 µM)
- activity / MIC in words (FIG. 10) [5]: No difference in MIC
- MIC [4]: 1 to 2 µg/mL (≈ 2.85 to 5.71 µM)
- fold less active than metronidazole (MIC) ([4]; relative to metronidazole): 4 to 8 fold

SMILES: Cc1ncc([N+](=O)[O-])n1CCN1C(=O)C(C(=O)c2ccc(F)cc2)=C(O)[C@H]1CC(C)C [Compound 2315, (R)-3-(4-fluorobenzoyl)-4-hydroxy-5-isobutyl-1-(2-(2-methyl-5-nitro-1H-imidazol-1-yl)ethyl)-1H-pyrrol-2(5H)-one]
- Caco-2 permeation in words ([1]; Caco-2): slightly more permeable than vancomycin
- permeability co-efficient (Papp A-B) ([1]; Caco-2): 284.5±34.7 to 307±35.6
- activity / MIC in words (FIG. 10) [5]: No difference in MIC
